The target of the first test is T1, Aurora Kinase A (Homo sapiens, UniProt O14965).
T1 construct: purchased Upstate
T1 sequence (O14965 1-403): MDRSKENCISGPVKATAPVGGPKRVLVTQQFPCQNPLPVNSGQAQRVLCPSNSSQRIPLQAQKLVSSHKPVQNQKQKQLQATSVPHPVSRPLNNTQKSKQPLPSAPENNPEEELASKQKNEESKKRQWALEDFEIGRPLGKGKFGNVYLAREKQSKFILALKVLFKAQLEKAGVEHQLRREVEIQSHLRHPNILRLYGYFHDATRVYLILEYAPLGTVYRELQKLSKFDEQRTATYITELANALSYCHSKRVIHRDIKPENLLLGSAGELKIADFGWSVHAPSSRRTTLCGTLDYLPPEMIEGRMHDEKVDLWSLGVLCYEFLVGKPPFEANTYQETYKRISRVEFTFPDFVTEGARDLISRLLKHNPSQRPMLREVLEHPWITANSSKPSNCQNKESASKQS
In words: Aurora kinase A enzyme inhibition (Kemptide, Kinase glo). The test is classed as biochemical. As to conditions: 1 μM ATP. The method, then: The test solution prepared above by dissolving a test compound in DMSO was added to the reaction solution in an amount of less than 5% based on the total reaction solution to analyze the capacity for enzyme inhibitory activity. The cpm value obtained when the test compounds was present relative to the cpm value in the absence of the test compound was represented by percentage, and IC50 (μM) was determined as the concentration of the test compound required to inhibit the enzyme activity by 50% relatively to the control solution.
A test solution was prepared by dissolving one of the compounds of the Examples in DMSO at a concentration of 12.5 mM. Enzyme reaction was conducted in a buffer solution containing 20 mM of HEPES (pH 7.5), 5 mM MgCl2, 0.5 mM ethylene glycol bis(b-aminoethylether) tetraacetic acid (EGTA), 200 mM of KCl, 1 mM of DTT and 0.05% triton X-100. 100 μM of Kemptide peptide (Upstate) and 1 μM of ATP were added to the buffer solution as substrates. Recombinant aurora kinase (Upstate) was added the resulting mixture at a concentration of 10 nM and reaction was carried out at 30° C. for 1 hour. 25 μl of the resulting solution was mixed with 25 μl of Kinase glo (promega), thereby inducing the second reaction by luciferase. The amount of remained ATP was measured by fusion a-FP (Packard, USA). Inhibitory capacities of the test compounds for the enzyme activity were assessed according to the same method as in GSK-3β analysis, and IC50 value was calculated.
(Kinase-Glo reads ATP consumption through a luciferase reaction.)
human GSK-3β, sequence (P49841 whole entry, the tested form may be a part): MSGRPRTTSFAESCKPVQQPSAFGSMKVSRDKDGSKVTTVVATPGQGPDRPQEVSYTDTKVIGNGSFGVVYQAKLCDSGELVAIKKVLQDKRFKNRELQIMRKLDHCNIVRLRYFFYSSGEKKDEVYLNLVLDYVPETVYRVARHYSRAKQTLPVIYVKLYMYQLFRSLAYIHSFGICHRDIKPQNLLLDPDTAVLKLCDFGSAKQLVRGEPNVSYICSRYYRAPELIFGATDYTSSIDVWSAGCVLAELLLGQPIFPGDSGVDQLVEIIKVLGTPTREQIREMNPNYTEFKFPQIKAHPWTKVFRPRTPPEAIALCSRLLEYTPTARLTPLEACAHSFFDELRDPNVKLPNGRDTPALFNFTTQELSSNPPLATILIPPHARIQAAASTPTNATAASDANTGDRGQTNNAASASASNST
As usually defined, the IC50 is the concentration needed to halve the response being measured. Take `CCC(C)(C)NC(=O)c1ccnc2[nH]c(-c3ccc(NCCN(C)C)cc3)nc12` [Example 381, 2-[4-(2-dimethylamino-ethylamino)-phenyl]-3H-imidazo[4,5-b]pyridine-7-carboxylic acid(1,1-dimethyl-propyl)-amide]: half-maximal inhibition (IC50) was put at 33 nM.
Same read-out and setting: the value for `CC1(C)C2CC[C@@]1(C)[C@@H](NC(=O)c1ccnc3[nH]c(-c4ccc(NCCN5CCOCC5)cc4)nc13)C2` [Example 368, 2-[4-(2-morpholin-4-yl-ethylamino)-phenyl]-3H-imidazo[4,5-b]pyridine-7-carboxylic acid(1,7,7-trimethyl-bicyclo[2.2.1]heptin-2-yl)-amide] was 40 nM.
On to `CCSc1ccncc1NC(=O)c1ccnc2[nH]c(-c3ccc(N4CCN(C)CC4)cc3)nc12` [Example 418, 2-[4-(4-methyl-piperazin-1-yl)-phenyl]-3H-imidazo[4,5-b]pyridine-7-carboxylic acid(4-ethylsulfanyl-pyridin-3-yl)-amide], for which the IC50 was determined as 200 nM.
Still for that read-out and setting: the value for `CCOc1cc(C)ncc1NC(=O)c1ccnc2[nH]c(-c3ccc(N4CCN(C)CC4)cc3)nc12` [Example 423, 2-[4-(4-methyl-piperazin-1-yl)-phenyl]-3H-imidazo[4,5-b]pyridine-7-carboxylic acid(4-ethoxy-6-methyl-pyridin-3-yl)-amide] was 105 nM.
Consider `CCN(CC)C1CCN(c2ccc(-c3nc4c(C(=O)Nc5ccc(C)nc5)ccnc4[nH]3)cc2)C1` (centres unmarked) [Example 409, 2-[4-(3-diethylamino-pyrrolidin-1-yl)-phenyl]-3H-imidazo[4,5-b]pyridine-7-carboxylic acid(6-methyl-pyridin-3-yl)-amide], for which the IC50 was 250 nM.
Take `O=C(NC1C2CC3CC(C2)CC1C3)c1ccnc2[nH]c(-c3ccc(F)cc3)nc12` (centres unmarked) [Example 264, 2-(4-fluoro-phenyl)-3H-imidazo[4,5-b]pyridine-7-carboxylic acid adamantan-2-ylamide]: the IC50 was 70 nM.
Consider `CN(C)CCOc1ccncc1NC(=O)c1ccnc2[nH]c(-c3ccc(F)cc3)nc12` [Example 313, 2-(4-fluoro-phenyl)-3H-imidazo[4,5-b]pyridine-7-carboxylic acid[4-(2-dimethylamino-ethoxy)-pyridin-3-yl]-amide], for which the IC50 was 1100 nM.
The compound `CCOc1ccncc1NC(=O)c1ccnc2[nH]c(-c3ccc(OC)cc3)nc12` [Example 425, 2-(4-methoxy-phenyl)-3H-imidazo[4,5-b]pyridine-7-carboxylic acid(4-ethoxy-pyridin-3-yl)-amide] returned an IC50 of more than 6000 nM.
Same read-out and setting: for `CN1CCN(c2ccc(-c3nc4c(C(=O)NC5CC6CCC5C6)ccnc4[nH]3)cc2)CC1` (centres unmarked) [Example 371, 2-[4-(4-methyl-piperazin-1-yl)-phenyl]-3H-imidazo[4,5-b]pyridine-7-carboxylic acid bicyclo[2.2.1]heptin-2-ylamide] the value was 113 nM.

The next test addresses human GSK-3β (Homo sapiens, UniProt P49841). In words: GSK-3β enzyme inhibition (32P-ATP, phospho-CREB peptide, filter paper). In kind it is biochemical. As to conditions: 100 μM ATP, 30° C., 1 hour. The method, then: GSK-3β was prepared by a gene recombination method.
First, primers corresponding to 5′-end and 3′-end of polynucleotide encoding human GSK-3β were designed and synthesized from nucleotide sequence of human GSK-3β (GenBank Reg. No. L33801). Then, the primers were amplified by PCR (polymerase chain reaction) in which a human DNA sequence was employed as a template and treated with restriction enzyme BamH1/XhoI. The resulting gene fragments were inserted into the corresponding identical restriction sites of pGex vector (GE Healthcare Life Science) to prepare an expression vector for transformation of E. coli BL21 (DE3) strain (Invitrogen). The transformed E. coli strain was inoculated to LB medium (1% Bacto tryptone, 0.5% yeast extract, 1% sodium chloride) and cultured until the optical density of the bacterial cells was about 0.5 at 600 nm and 37° C. Then, IPTG (isopropyl-β-D-thiogalactoside) was added thereto to a final concentration to 0.5 mM at 18° C. 16 hours after IPTG addition, the cells were subjected to centrifugation at 10,000×g for 10 mins and cell precipitates were collected. The cell precipitates were suspended in a buffer solution (30 mM tris-HCl (pH 7.5), 100 mM NaCl, 5% glycerol, 2 mM DTT) and the cells were smashed in an ice bath using a Sonic Dismembrator (Fisher, USA). The resulting solution was centrifuged at 16,000 rpm for 30 mins.
The supernatant obtained above was introduced to a pre-equilibrated GST column (Pharmacia, USA) and eluted by 5 mM glutachione. The effuent was subjected to SDS-PAGE and GSK-3β protein was collected. GST protein was cutt using thrombin. The GSK-3β protein thus obtained was diluted with a buffer solution (20 mM HEPES (pH 7.5), 5% glycerol, 2 mM DTT) until the concentration of NaCl reached 50 mM. The diluted solution was introduced to Mono S column (Pharmacia, USA) equilibrated with the above buffer solution and eluted with a aqueous NaCl while changing the concentration from 0 to 1 M NaCl, and GSK-3β protein was collected by a electrophoresis. The purified protein was used in the analysis for the activity for enzyme activity.
The enzyme reaction was conducted in a buffer solution (50 mM of tris-HCl (pH 7.5), 10 mM of MgCl2, 1 mM of EGTA, 1 mM of EDTA and 1 mM of DTT). 100 μM of phosho-CREB peptide (NEB, USA), 100 μM of ATP and 1 μCi of ^32P-ATP were added to the buffer solution as substrates. And then 100 nM of recombinant GSK-3β was added thereto and the mixture was reacted at 30° C. for 1 hour. The reaction was terminated by the addition of 5 μl of 5% phosphoric acid solution to 25 μl of the reaction mixture. The resulting solution was subjected to centrifugation at 15,000 for 10 mins and 20 μl of the supernatant thus obtained was dropped on whatman p81 filter paper. The filter paper was washed in 0.5% phosphoric acid solution for 10 mins. After repeating the washing 3 times, the filter paper was dried and its cpm (counter per mins) was assessed.
The test solution prepared above by dissolving a test compound in DMSO was added to the reaction solution in an amount of less than 5% based on the total reaction solution to analyze the capacity for enzyme inhibitory activity.
`CCSc1ccncc1NC(=O)c1ccnc2[nH]c(-c3ccc(Cl)cc3)nc12` [Example 61, 2-(4-chloro-phenyl)-3H-imidazo[4,5-b]pyridine-7-carboxylic acid(4-ethylsulfanyl-pyridin-3-yl)-amide]: the IC50 was determined as 3 nM.
Same read-out and setting: the value for `CN1CCN(c2ccc(-c3nc4c(C(=O)Nc5cccnc5)ccnc4[nH]3)cc2)CC1` [Example 327, 2-[4-(4-methyl-piperazin-1-yl)-phenyl]-3H-imidazo[4,5-b]pyridine-7-carboxylic acid pyridin-3-ylamide] was 50 nM; that for `CC(=O)Nc1ccc(CCNC(=O)c2ccnc3[nH]c(-c4ccccc4)nc23)cc1` [Example 1, 2-phenyl-3H-imidazo[4,5-b]-pyridine-7-carboxylic acid [2-(4-acetylamino-phenyl)-ethyl]-amide] was 20 nM; that for `CCOc1cc(C)ncc1NC(=O)c1ccnc2[nH]c(-c3ccc(F)cc3)nc12` [Example 325, 2-(4-fluoro-phenyl)-3H-imidazo[4,5-b]pyridine-7-carboxylic acid(4-ethoxy-6-methyl-pyridin-3-yl)-amide] was 2 nM.
With `CCOc1ccncc1NC(=O)c1ccnc2[nH]c(-c3ccc(N4CCCC4)cc3)nc12` [Example 404, 2-(4-pyrrolidin-1-yl-phenyl)-3H-imidazo[4,5-b]pyridine-7-carboxylic acid(4-ethoxy-pyridin-3-yl)-amide], the IC50 was 3 nM.
The same measure, in the same setting: for `O=C(NCCCc1ccncc1)c1ccnc2[nH]c(-c3cccs3)nc12` [Example 109, 2-thiophen-2-yl-3H-imidazo[4,5-b]pyridine-7-carboxylic acid(3-pyridin-4-yl-propyl)-amide] the value was 52 nM; for `CC(=O)Nc1ccc(CCNC(=O)c2ccnc3[nH]c(-c4ccc(Cl)cc4)nc23)cc1` [Example 44, 2-(4-chloro-phenyl)-3H-imidazo[4,5-b]pyridine-7-carboxylic acid[2-(4-acetylamino-phenyl)-ethyl]-amide], 38 nM; for `Cc1ccncc1NC(=O)c1ccnc2[nH]c(-c3ccc(N4CCCC4)cc3)nc12` [Example 332, 2-(4-pyrrolidin-1-yl-phenyl)-3H-imidazo[4,5-b]pyridine-7-carboxylic acid(4-methyl-pyridin-3-yl)-amide], 12 nM.
